From US12559529B2, “NPY2 receptor agonists” (Boehringer Ingelheim International GmbH, priority 2019, dated 2026)
*1 amine or outer side, *2 acyl side, *3 side chain or, on linkers, in order; H or OH if unused. Where a SMILES comes first, the peptide text is derived from it. Side-chain parts run from the residue outwards. The star is where a group is joined. C18 diacid = O=C(O)CCCCCCCCCCCCCCCCC(=O)*; γGlu = O=C(O)[C@H](CCC(=O)[*:2])N[*:1]; Isovaleryl = CC(C)CC(=O)*; AEEA = NCCOCCOCC(=O)O

What was measured:
[1] = molecular target: T1, Human Neuropeptide Y2 Receptor (Homo sapiens, UniProt P49146); experiment: Radioligand binding competition assay (RLB); conditions: Table 3; human 125I-PYY (1-36) 0.02 nM, Y2 receptor membranes; read-out: Ki
T1 construct: purchased CHEMICON HTS066M
T1 sequence (P49146 1-381): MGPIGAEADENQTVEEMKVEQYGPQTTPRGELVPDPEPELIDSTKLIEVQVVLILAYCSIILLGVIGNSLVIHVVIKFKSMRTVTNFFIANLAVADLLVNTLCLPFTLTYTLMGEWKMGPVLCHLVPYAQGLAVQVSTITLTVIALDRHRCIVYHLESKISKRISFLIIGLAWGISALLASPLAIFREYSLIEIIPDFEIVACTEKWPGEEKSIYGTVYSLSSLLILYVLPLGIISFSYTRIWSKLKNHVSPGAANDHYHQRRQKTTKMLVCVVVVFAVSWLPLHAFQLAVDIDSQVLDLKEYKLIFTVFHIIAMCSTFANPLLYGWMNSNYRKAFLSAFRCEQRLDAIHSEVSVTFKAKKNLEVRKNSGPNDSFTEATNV
Method in brief: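 Membranes (0.5 μg/well) and test peptides, serially diluted from 1 mM DMSO stocks, were incubated 2 hours at room temperature in HEPES buffer pH 7.4 with Mg, Ca and ovalbumin.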

normal NMRI mice = experiment: Effect on acute food intake in normal NMRI mice; type: in vivo; conditions: male NMRI mice, 10 nmol/kg subcutaneously once
Method in brief: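 Male NMRI mice acclimatized in an HM-2 real-time food intake monitoring system, fasted 6 h before dark phase. Single subcutaneous dose of 10 nmol/kg peptide given 1 h before dark; n=7-8. Food intake expressed as % of vehicle group (50 mM phosphate pH7, 5% Mannitol).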

Compound | Ki [1] [nM] | Acute Food Intake 24 h [% vehicle] (normal NMRI mice)
CC(C)CC(=O)N[C@@H](C)C(=O)N1CCC[C@H]1C(=O)N[C@@H](CCC(=O)O)C(=O)N[C@@H](CCCCNC(=O)COCCOCCNC(=O)COCCOCCNC(=O)CC[C@H](NC(=O)CCCCCCCCCCCCCCCCC(=O)O)C(=O)O)C(=O)N1CCC[C@H]1C(=O)N[C@@H](CCC(=O)O)C(=O)N[C@@H](CCC(=O)O)C(=O)N[C@@H](CCC(=O)O)C(=O)N[C@@H](CO)C(=O)N[C@@H](CO)C(=O)N1CCC[C@H]1C(=O)N[C@@H](CCC(=O)O)C(=O)N[C@@H](CCC(=O)O)C(=O)N[C@@H](CC(C)C)C(=O)N[C@@H](CCC(N)=O)C(=O)N[C@@H](CCCNC(=N)N)C(=O)N[C@@H](Cc1ccc(O)cc1)C(=O)N[C@@H](Cc1ccc(O)cc1)C(=O)N[C@H](C(=O)N[C@@H](CO)C(=O)N[C@@H](CC(C)C)C(=O)N[C@@H](CCCNC(=N)N)C(=O)N[C@@H](Cc1c[nH]cn1)C(=O)N[C@@H](Cc1ccc(O)cc1)C(=O)N[C@@H](Cc1ccc(O)cc1)C(=O)N[C@@H](CC(N)=O)C(=O)N[C@@H](Cc1c[nH]c2ccccc12)C(=O)N[C@@H](CC(C)C)C(=O)N[C@H](C(=O)N[C@@H](CCCNC(=N)N)C(=O)N[C@@H](CCC(N)=O)C(=O)N[C@@H](CCCNC(=N)N)C(=O)N[C@@H](Cc1ccc(O)cc1)C(N)=O)[C@@H](C)O)C(C)C [Compound 139, N{alpha-4}-(3-methylbutanoyl)-N{epsilon-7}-[2-(2-{2-[2-(2-{2-[(4S)-4-carboxy-4-(17-carboxyheptadecanamido)butanamido]ethoxy}ethoxy)acetamido]ethoxy}ethoxy)acetamido]-[4A,7K,9E,11E,12S,18Q,22V,28Y,30W,31L]hPYY (4-36)] (Isovaleryl-APEK([AEEA-AEEA-γGlu-C18 diacid])PEEESSPEELQRYYVSLRHYYNWLTRQRY-NH2) | 3.83 | 74
CC(C)CC(=O)N[C@@H](C)C(=O)N1CCC[C@H]1C(=O)N[C@@H](CCC(=O)O)C(=O)N[C@@H](CCCCNC(=O)COCCOCCNC(=O)COCCOCCNC(=O)CC[C@H](NC(=O)CCCCCCCCCCCCCCCCC(=O)O)C(=O)O)C(=O)N1CCC[C@H]1C(=O)N[C@@H](CCC(=O)O)C(=O)N[C@@H](CCC(=O)O)C(=O)N[C@@H](CC(=O)O)C(=O)N[C@@H](C)C(=O)N[C@@H](CCC(=O)O)C(=O)N1CCC[C@H]1C(=O)N[C@@H](CCC(=O)O)C(=O)N[C@@H](CCC(=O)O)C(=O)N[C@@H](CC(C)C)C(=O)N[C@@H](CCC(N)=O)C(=O)N[C@@H](CCCCN)C(=O)N[C@@H](Cc1ccc(O)cc1)C(=O)N[C@@H](Cc1ccc(O)cc1)C(=O)N[C@H](C(=O)N[C@@H](CO)C(=O)N[C@@H](CC(C)C)C(=O)N[C@@H](CCCNC(=N)N)C(=O)N[C@@H](Cc1c[nH]cn1)C(=O)N[C@@H](Cc1ccc(O)cc1)C(=O)N[C@@H](Cc1ccc(O)cc1)C(=O)N[C@@H](CC(N)=O)C(=O)N[C@@H](Cc1c[nH]c2ccccc12)C(=O)N[C@@H](CC(C)C)C(=O)N[C@H](C(=O)N[C@@H](CCCNC(=N)N)C(=O)N[C@@H](CCC(N)=O)C(=O)N[C@@H](CCCNC(=N)N)C(=O)N[C@@H](Cc1ccc(O)cc1)C(N)=O)[C@@H](C)O)C(C)C [Compound 150, N{alpha-4}-(3-methylbutanoyl)-N{epsilon-7}-[2-(2-{2-[2-(2-{2-[(4S)-4-carboxy-4-(17-carboxyheptadecanamido)butanamido]ethoxy}ethoxy)acetamido]ethoxy}ethoxy)acetamido]-[4A,7K,9E,13E,18Q,19K,22V,28Y,30W,31L]hPYY (4-36)] | 2.02 | 67
CC(C)CC(=O)N[C@@H](C)C(=O)N1CCC[C@H]1C(=O)N[C@@H](CCC(=O)O)C(=O)N[C@@H](CCCCNC(=O)COCCOCCNC(=O)COCCOCCNC(=O)CC[C@H](NC(=O)CCCCCCCCCCCCCCCCC(=O)O)C(=O)O)C(=O)N1CCC[C@H]1C(=O)N[C@@H](CCC(=O)O)C(=O)N[C@@H](C)C(=O)N[C@@H](CCC(=O)O)C(=O)N[C@@H](C)C(=O)N[C@@H](CO)C(=O)N1CCC[C@H]1C(=O)N[C@@H](CCC(=O)O)C(=O)N[C@@H](CCC(=O)O)C(=O)N[C@@H](CC(C)C)C(=O)N[C@@H](CCC(N)=O)C(=O)N[C@@H](CCCNC(=N)N)C(=O)N[C@@H](Cc1ccc(O)cc1)C(=O)N[C@@H](Cc1ccc(O)cc1)C(=O)N[C@H](C(=O)N[C@@H](CO)C(=O)N[C@@H](CC(C)C)C(=O)N[C@@H](CCCNC(=N)N)C(=O)N[C@@H](Cc1c[nH]cn1)C(=O)N[C@@H](Cc1ccc(O)cc1)C(=O)N[C@@H](Cc1ccc(O)cc1)C(=O)N[C@@H](CC(N)=O)C(=O)N[C@@H](Cc1c[nH]c2ccccc12)C(=O)N[C@@H](CC(C)C)C(=O)N[C@H](C(=O)N[C@@H](CCCNC(=N)N)C(=O)N[C@@H](CCC(N)=O)C(=O)N[C@@H](CCCNC(=N)N)C(=O)N[C@@H](Cc1ccc(O)cc1)C(N)=O)[C@@H](C)O)C(C)C [Compound 151, N{alpha-4}-(3-methylbutanoyl)-N{epsilon-7}-[2-(2-{2-[2-(2-{2-[(4S)-4-carboxy-4-(17-carboxyheptadecanamido)butanamido]ethoxy}ethoxy)acetamido]ethoxy}ethoxy)acetamido]-[4A,7K,9E,10A,11E,18Q,22V,28Y,30W,31L]hPYY (4-36)] | 1.43 | 45

The next lines start with results.

Ki [1] [nM] | Compound | Acute Food Intake 24 h [% vehicle] (normal NMRI mice)
0.96 | CC(C)CC(=O)N[C@@H](C)C(=O)N1CCC[C@H]1C(=O)N[C@@H](CCC(=O)O)C(=O)N[C@@H](CCCCNC(=O)COCCOCCNC(=O)COCCOCCNC(=O)CC[C@H](NC(=O)CCCCCCCCCCCCCCCCC(=O)O)C(=O)O)C(=O)N1CCC[C@H]1C(=O)N[C@@H](CCC(=O)O)C(=O)N[C@@H](CCC(=O)O)C(=O)N[C@@H](C)C(=O)N[C@@H](C)C(=O)N[C@@H](CO)C(=O)N1CCC[C@H]1C(=O)N[C@@H](CCC(=O)O)C(=O)N[C@@H](CCC(=O)O)C(=O)N[C@@H](CC(C)C)C(=O)N[C@@H](CCC(N)=O)C(=O)N[C@@H](CCCNC(=N)N)C(=O)N[C@@H](Cc1ccc(O)cc1)C(=O)N[C@@H](Cc1ccc(O)cc1)C(=O)N[C@H](C(=O)N[C@@H](C)C(=O)N[C@@H](CC(C)C)C(=O)N[C@@H](CCCNC(=N)N)C(=O)N[C@@H](Cc1c[nH]cn1)C(=O)N[C@@H](Cc1ccc(O)cc1)C(=O)N[C@@H](Cc1ccc(O)cc1)C(=O)N[C@@H](CC(N)=O)C(=O)N[C@@H](Cc1c[nH]c2ccccc12)C(=O)N[C@@H](CC(C)C)C(=O)N[C@H](C(=O)N[C@@H](CCCNC(=N)N)C(=O)N[C@@H](CCC(N)=O)C(=O)N[C@@H](CCCNC(=N)N)C(=O)N[C@@H](Cc1ccc(O)cc1)C(N)=O)[C@@H](C)O)C(C)C [Compound 163, N{alpha-4}-(3-methylbutanoyl)-N{epsilon-7}-[2-(2-{2-[2-(2-{2-[(4S)-4-carboxy-4-(17-carboxyheptadecanamido)butanamido]ethoxy}ethoxy)acetamido]ethoxy}ethoxy)acetamido]-[4A,7K,9E,11A,18Q,22V,23A,28Y,30W,31L]hPYY (4-36)] | 50
1.71 | CC(C)CC(=O)N[C@@H](C)C(=O)N1CCC[C@H]1C(=O)N[C@@H](C)C(=O)N[C@@H](CCCCNC(=O)COCCOCCNC(=O)COCCOCCNC(=O)CC[C@H](NC(=O)CCCCCCCCCCCCCCCCC(=O)O)C(=O)O)C(=O)N1CCC[C@H]1C(=O)N[C@@H](CCC(=O)O)C(=O)N[C@@H](CCC(=O)O)C(=O)N[C@@H](CC(=O)O)C(=O)N[C@@H](C)C(=O)N[C@@H](CO)C(=O)N1CCC[C@H]1C(=O)N[C@@H](CCC(=O)O)C(=O)N[C@@H](CCC(=O)O)C(=O)N[C@@H](CC(C)C)C(=O)N[C@@H](CCC(N)=O)C(=O)N[C@@H](CCCNC(=N)N)C(=O)N[C@@H](Cc1ccc(O)cc1)C(=O)N[C@@H](Cc1ccc(O)cc1)C(=O)N[C@H](C(=O)N[C@@H](CCC(=O)O)C(=O)N[C@@H](CC(C)C)C(=O)N[C@@H](CCCNC(=N)N)C(=O)N[C@@H](Cc1c[nH]cn1)C(=O)N[C@@H](Cc1ccc(O)cc1)C(=O)N[C@@H](Cc1ccc(O)cc1)C(=O)N[C@@H](CC(N)=O)C(=O)N[C@@H](Cc1c[nH]c2ccccc12)C(=O)N[C@@H](CC(C)C)C(=O)N[C@H](C(=O)N[C@@H](CCCNC(=N)N)C(=O)N[C@@H](CCC(N)=O)C(=O)N[C@@H](CCCNC(=N)N)C(=O)N[C@@H](Cc1ccc(O)cc1)C(N)=O)[C@@H](C)O)C(C)C [Compound 173, N{alpha-4}-(3-methylbutanoyl)-N{epsilon-7}-[2-(2-{2-[2-(2-{2-[(4S)-4-carboxy-4-(17-carboxyheptadecanamido)butanamido]ethoxy}ethoxy)acetamido]ethoxy}ethoxy)acetamido]-[4A,6A,7K,9E,18Q,22V,23E,28Y,30W,31L]hPYY (4-36)] | 49
